{"source": "ChEMBL document CHEMBL1201862", "about": "“PubChem BioAssay data set” (2004)", "test_in_all_cases": "NCI anticancer screen, dose series, 48 h", "key": {"SNB-19": {"system": "SNB-19"}, "SW-620": {"system": "SW-620"}, "NCI/ADR-RES": {"system": "NCI/ADR-RES"}, "NCI-H226": {"system": "NCI-H226"}, "HT-29": {"system": "HT-29"}, "SF-295": {"system": "SF-295"}, "EKVX": {"system": "EKVX"}, "MDA-MB-231": {"system": "MDA-MB-231"}, "IGROV-1": {"system": "IGROV-1"}, "SR": {"system": "SR"}, "SK-MEL-5": {"system": "SK-MEL-5"}, "Malme-3M": {"system": "Malme-3M"}, "NCI-H23": {"system": "NCI-H23"}, "SF-268": {"system": "SF-268"}, "RPMI-8226": {"system": "RPMI-8226"}, "K562": {"system": "K562"}, "COLO 205": {"system": "COLO 205"}, "BT-549": {"system": "BT-549"}, "MOLT-4": {"system": "MOLT-4"}, "OVCAR-3": {"system": "OVCAR-3"}}, "note": "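Interpolation was linear, between the two tested concentrations surrounding the appropriate level; five concentrations were tested over 48 hours in 96-well plates. GI50 marks 50% less growth.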 The source made the active and inactive calls. Cut-off read from the data, not from the text of the source: active = GI50 up to about 1.1 µM and inactive = higher.", "data": [{"smiles": "Nc1nc(N)c(N=Nc2ccc([As](=O)(O)O)c(O)c2)c(N)n1", "values": [{"measurement": "GI50", "setting": "SNB-19", "result": "43.2 µM (inactive)"}, {"measurement": "GI50", "setting": "SW-620", "result": "4.89 µM (inactive)"}, {"measurement": "GI50", "setting": "NCI/ADR-RES", "result": "> 100 µM (inactive)"}, {"measurement": "GI50", "setting": "NCI-H226", "result": "> 100 µM (inactive)"}, {"measurement": "GI50", "setting": "HT-29", "result": "3.75 µM (inactive)"}, {"measurement": "GI50", "setting": "SF-295", "result": "33.7 µM (inactive)"}, {"measurement": "GI50", "setting": "EKVX", "result": "> 63.5 µM (inactive)"}, {"measurement": "GI50", "setting": "MDA-MB-231", "result": "> 54.2 µM (inactive)"}, {"measurement": "GI50", "setting": "IGROV-1", "result": "4.61 µM (inactive)"}, {"measurement": "GI50", "setting": "SR", "result": "0.834 µM (active)"}, {"measurement": "GI50", "setting": "SK-MEL-5", "result": "20.3 µM (inactive)"}, {"measurement": "GI50", "setting": "Malme-3M", "result": "79.1 µM (inactive)"}, {"measurement": "GI50", "setting": "NCI-H23", "result": "7.57 µM (inactive)"}, {"measurement": "GI50", "setting": "SF-268", "result": "55.8 µM (inactive)"}, {"measurement": "GI50", "setting": "RPMI-8226", "result": "3.21 µM (inactive)"}, {"measurement": "GI50", "setting": "K562", "result": "11.1 µM (inactive)"}, {"measurement": "GI50", "setting": "COLO 205", "result": "22 µM (inactive)"}, {"measurement": "GI50", "setting": "BT-549", "result": "32.4 µM (inactive)"}, {"measurement": "GI50", "setting": "MOLT-4", "result": "3.63 µM (inactive)"}, {"measurement": "GI50", "setting": "OVCAR-3", "result": "3.61 µM (inactive)"}]}, {"smiles": "Cn1c(=O)c(C(=O)Nc2nc(C34CC5CC(CC(C5)C3)C4)cs2)c(O)c2ccccc21", "values": [{"measurement": "GI50", "setting": "SNB-19", "result": "35.6 µM (inactive)"}, {"measurement": "GI50", "setting": "SW-620", "result": "> 100 µM (inactive)"}, {"measurement": "GI50", "setting": "NCI/ADR-RES", "result": "13.2 µM (inactive)"}, {"measurement": "GI50", "setting": "NCI-H226", "result": "52.8 µM (inactive)"}, {"measurement": "GI50", "setting": "HT-29", "result": "> 100 µM (inactive)"}, {"measurement": "GI50", "setting": "SF-295", "result": "> 100 µM (inactive)"}, {"measurement": "GI50", "setting": "EKVX", "result": "> 100 µM (inactive)"}, {"measurement": "GI50", "setting": "MDA-MB-231", "result": "70 µM (inactive)"}, {"measurement": "GI50", "setting": "IGROV-1", "result": "77.3 µM (inactive)"}, {"measurement": "GI50", "setting": "SR", "result": "38.2 µM (inactive)"}, {"measurement": "GI50", "setting": "SK-MEL-5", "result": "> 100 µM (inactive)"}, {"measurement": "GI50", "setting": "Malme-3M", "result": "> 100 µM (inactive)"}, {"measurement": "GI50", "setting": "NCI-H23", "result": "> 100 µM (inactive)"}, {"measurement": "GI50", "setting": "SF-268", "result": "> 100 µM (inactive)"}, {"measurement": "GI50", "setting": "RPMI-8226", "result": "> 100 µM (inactive)"}, {"measurement": "GI50", "setting": "K562", "result": "40 µM (inactive)"}, {"measurement": "GI50", "setting": "COLO 205", "result": "> 100 µM (inactive)"}, {"measurement": "GI50", "setting": "BT-549", "result": "75.2 µM (inactive)"}, {"measurement": "GI50", "setting": "MOLT-4", "result": "> 10 µM (inactive)"}, {"measurement": "GI50", "setting": "OVCAR-3", "result": "> 100 µM (inactive)"}]}, {"smiles": "Cc1nn(-c2ccccc2)c2c1C(c1cc3ccccc3nc1Cl)NC(=O)N2", "note": "(stereo not given)", "values": [{"measurement": "GI50", "setting": "SNB-19", "result": "20.7 µM (inactive)"}, {"measurement": "GI50", "setting": "SW-620", "result": "17.7 µM (inactive)"}, {"measurement": "GI50", "setting": "NCI/ADR-RES", "result": "28.4 µM (inactive)"}, {"measurement": "GI50", "setting": "NCI-H226", "result": "19.1 µM (inactive)"}, {"measurement": "GI50", "setting": "HT-29", "result": "18.7 µM (inactive)"}, {"measurement": "GI50", "setting": "SF-295", "result": "21.1 µM (inactive)"}, {"measurement": "GI50", "setting": "EKVX", "result": "25.9 µM (inactive)"}, {"measurement": "GI50", "setting": "MDA-MB-231", "result": "20.6 µM (inactive)"}, {"measurement": "GI50", "setting": "IGROV-1", "result": "11 µM (inactive)"}, {"measurement": "GI50", "setting": "SR", "result": "2.19 µM (inactive)"}, {"measurement": "GI50", "setting": "SK-MEL-5", "result": "17 µM (inactive)"}, {"measurement": "GI50", "setting": "Malme-3M", "result": "20.8 µM (inactive)"}, {"measurement": "GI50", "setting": "NCI-H23", "result": "17.9 µM (inactive)"}, {"measurement": "GI50", "setting": "SF-268", "result": "27.4 µM (inactive)"}, {"measurement": "GI50", "setting": "RPMI-8226", "result": "23.9 µM (inactive)"}, {"measurement": "GI50", "setting": "K562", "result": "2.94 µM (inactive)"}, {"measurement": "GI50", "setting": "COLO 205", "result": "19.5 µM (inactive)"}, {"measurement": "GI50", "setting": "BT-549", "result": "16.6 µM (inactive)"}, {"measurement": "GI50", "setting": "MOLT-4", "result": "2.64 µM (inactive)"}, {"measurement": "GI50", "setting": "OVCAR-3", "result": "32.7 µM (inactive)"}]}, {"smiles": "C=CC/C(C(=O)OC)=C(/C(=O)OC)N(CCC)CCC", "values": [{"measurement": "GI50", "setting": "SNB-19", "result": "> 100 µM (inactive)"}, {"measurement": "GI50", "setting": "SW-620", "result": "76.7 µM (inactive)"}, {"measurement": "GI50", "setting": "NCI/ADR-RES", "result": "> 100 µM (inactive)"}, {"measurement": "GI50", "setting": "NCI-H226", "result": "> 100 µM (inactive)"}, {"measurement": "GI50", "setting": "HT-29", "result": "> 100 µM (inactive)"}, {"measurement": "GI50", "setting": "SF-295", "result": "> 100 µM (inactive)"}, {"measurement": "GI50", "setting": "EKVX", "result": "74.3 µM (inactive)"}, {"measurement": "GI50", "setting": "MDA-MB-231", "result": "> 100 µM (inactive)"}, {"measurement": "GI50", "setting": "IGROV-1", "result": "> 100 µM (inactive)"}, {"measurement": "GI50", "setting": "SR", "result": "16.4 µM (inactive)"}, {"measurement": "GI50", "setting": "SK-MEL-5", "result": "> 100 µM (inactive)"}, {"measurement": "GI50", "setting": "Malme-3M", "result": "> 100 µM (inactive)"}, {"measurement": "GI50", "setting": "NCI-H23", "result": "> 100 µM (inactive)"}, {"measurement": "GI50", "setting": "SF-268", "result": "> 100 µM (inactive)"}, {"measurement": "GI50", "setting": "RPMI-8226", "result": "41.9 µM (inactive)"}, {"measurement": "GI50", "setting": "K562", "result": "35.8 µM (inactive)"}, {"measurement": "GI50", "setting": "COLO 205", "result": "99.5 µM (inactive)"}, {"measurement": "GI50", "setting": "BT-549", "result": "> 100 µM (inactive)"}, {"measurement": "GI50", "setting": "MOLT-4", "result": "61.8 µM (inactive)"}, {"measurement": "GI50", "setting": "OVCAR-3", "result": "36.1 µM (inactive)"}]}, {"smiles": "Cc1ncc(COP(=O)(O)O)c(/C=C2\\SC(=S)NC2=O)c1O", "values": [{"measurement": "GI50", "setting": "SNB-19", "result": "> 100 µM (inactive)"}, {"measurement": "GI50", "setting": "SW-620", "result": "> 100 µM (inactive)"}, {"measurement": "GI50", "setting": "NCI/ADR-RES", "result": "> 100 µM (inactive)"}, {"measurement": "GI50", "setting": "NCI-H226", "result": "> 100 µM (inactive)"}, {"measurement": "GI50", "setting": "HT-29", "result": "> 100 µM (inactive)"}, {"measurement": "GI50", "setting": "SF-295", "result": "> 22.3 µM (inactive)"}, {"measurement": "GI50", "setting": "EKVX", "result": "> 100 µM (inactive)"}, {"measurement": "GI50", "setting": "MDA-MB-231", "result": "> 100 µM (inactive)"}, {"measurement": "GI50", "setting": "IGROV-1", "result": "> 100 µM (inactive)"}, {"measurement": "GI50", "setting": "SR", "result": "> 100 µM (inactive)"}, {"measurement": "GI50", "setting": "SK-MEL-5", "result": "> 100 µM (inactive)"}, {"measurement": "GI50", "setting": "Malme-3M", "result": "> 100 µM (inactive)"}, {"measurement": "GI50", "setting": "NCI-H23", "result": "> 100 µM (inactive)"}, {"measurement": "GI50", "setting": "SF-268", "result": "> 100 µM (inactive)"}, {"measurement": "GI50", "setting": "RPMI-8226", "result": "> 100 µM (inactive)"}, {"measurement": "GI50", "setting": "K562", "result": "> 85.7 µM (inactive)"}, {"measurement": "GI50", "setting": "COLO 205", "result": "> 100 µM (inactive)"}, {"measurement": "GI50", "setting": "BT-549", "result": "> 100 µM (inactive)"}, {"measurement": "GI50", "setting": "MOLT-4", "result": "> 100 µM (inactive)"}, {"measurement": "GI50", "setting": "OVCAR-3", "result": "> 100 µM (inactive)"}]}]}
